Read-outs that look alike come from different tables or passages of the source. One block for each molecule: values may come before it.
How the values were obtained:
Assay type in all cases: in vivo
[1] = tested on: Alopecurus myosuroides (ALOMY); assay: Pre-emergence herbicidal action against ALOMY; conditions: scored visually after about 3 weeks, 100% = plants have died
Method in brief: (§1)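 Herbicide applied to soil before seedling emergence, at 600 l/ha spray volume with 0.5% additive and rates up to 320 g/ha. Evaluation: visual percentage effect, about 3 weeks later, greenhouse-grown pots compared with untreated ones.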

[2] = tested on: Amaranthus retroflexus (AMARE); assay: Pre-emergence herbicidal action against AMARE; conditions: 320 g/ha, visual scoring after about 3 weeks vs untreated controls
Method in brief: as §1

Avena fatua (AVEFA) [3] = assay: Pre-emergence herbicidal action against AVEFA; conditions: 320 g/ha, visual scoring after about 3 weeks vs untreated controls
Method in brief: as §1

[4] = tested on: Digitaria sanguinalis (DIGSA); assay: Pre-emergence herbicidal action against DIGSA
Method in brief: as §1

[5] = tested on: Echinochloa crus-galli (ECHCG); assay: Pre-emergence herbicidal action against ECHCG; conditions: dosage 320 g/ha
Method in brief: as §1

Lolium rigidum (LOLRI) [6] = assay: Pre-emergence herbicidal action against LOLRI; conditions: dosage 320 g/ha
Method in brief: as §1

[7] = tested on: Matricaria inodora (MATIN); assay: Pre-emergence herbicidal action against MATIN; conditions: dosage 320 g/ha
Method in brief: as §1

[8] = tested on: Polygonum convolvulus (POLCO); assay: Pre-emergence herbicidal action against POLCO
Method in brief: as §1

Setaria viridis (SETVI) [9] = assay: Pre-emergence herbicidal action against SETVI
Method in brief: as §1

[10] = tested on: Verconica persica (VERPE); assay: Pre-emergence herbicidal action against VERPE; conditions: dosage 320 g/ha
Method in brief: as §1

Viola tricolor (VIOTR) [11] = assay: Pre-emergence herbicidal action against VIOTR; conditions: 320 g/ha, Viola tricolor
Method in brief: as §1

Brassica napus (BRSNW) = conditions: crop plant compatibility, in comparison to untreated controls
Method in brief: (§2)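 Scoring: visual, % of untreated control, about 3 weeks after a pre-emergence application to the soil surface. Application used WP or EC formulations diluted in water with 0.5% additive at 600 l/ha; dosage levels are marked by suffixes a, b and c.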

Glycine max (GLXMA) = conditions: crop plant compatibility; for Pre-emergence action against GLXMA in %: 80 g/ha, in comparison to untreated controls
Method in brief: as §2

Oryza sativa (ORYSA) [12] = conditions: crop plant compatibility; for Pre-emergence action against ORYSA in %: in comparison to untreated controls
Method in brief: as §2

[13] = tested on: Triticum aestivum (TRZAS); conditions: crop plant compatibility; for Pre-emergence action against TRZAS in %: in comparison to untreated controls
Method in brief: as §2

Zea mays (ZEAMX) [14] = conditions: crop plant compatibility; for Pre-emergence action against ZEAMX in %: in comparison to untreated controls
Method in brief: as §2

[15] = tested on: Alopecurus myosuroides (ALOMY); assay: Post-emergence herbicidal action against ALOMY; conditions: visual rating about 3 weeks after treatment vs untreated controls (100% = plants have died, 0% = like control plants)
Method in brief: (§3)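 Post-emergence greenhouse spray, one-leaf stage, 600 l/ha water plus 0.5% additive; WP or EC formulations; application rates 320 g/ha or lower. Visual % damage vs untreated controls at ~3 weeks.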

Avena fatua (AVEFA) [16] = assay: Post-emergence herbicidal action against AVEFA; conditions: visual rating about 3 weeks after treatment
Method in brief: as §3

[17] = tested on: Digitaria sanguinalis (DIGSA); assay: Post-emergence herbicidal action against DIGSA; conditions: visual rating about 3 weeks after treatment
Method in brief: as §3

[18] = tested on: Echinochloa crus-galli (ECHCG); assay: Post-emergence herbicidal action against ECHCG; conditions: dosage 320 g/ha
Method in brief: as §3

Lolium rigidum (LOLRI) [19] = assay: Post-emergence herbicidal action against LOLRI; conditions: dosage 320 g/ha
Method in brief: as §3

[20] = tested on: Pharbitis purpurea (PHBPU); assay: Post-emergence herbicidal action against PHBPU
Method in brief: as §3

Setaria viridis (SETVI) [21] = assay: Post-emergence herbicidal action against SETVI
Method in brief: as §3

[22] = tested on: Verconica persica (VERPE); assay: Post-emergence herbicidal action against VERPE; conditions: 320 g/ha, VERPE
Method in brief: as §3

Viola tricolor (VIOTR) [23] = assay: Post-emergence herbicidal action against VIOTR; conditions: 320 g/ha
Method in brief: as §3

Oryza sativa (ORYSA) [24] = conditions: crop plant compatibility
Method in brief: (§4)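 One-leaf-stage crops (2–3 wk post-sowing, sandy loam, greenhouse) sprayed on green parts; 0.5% additive, 600 l/ha water. Rated by eye ~3 wk later, % vs untreated; suffixes a/b/c mark different dosages.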

Zea mays (ZEAMX) [25] = conditions: for Post-emergence action against ZEAMX in %: crop plant compatibility, effect vs untreated controls
Method in brief: as §4

[26] = tested on: Amaranthus retroflexus (AMARE); assay: Post-emergence herbicidal action against AMARE; conditions: 320 g/ha, visual rating about 3 weeks after treatment
Method in brief: as §3

[27] = tested on: Triticum aestivum (TRZAS); conditions: crop plant compatibility, 80 g/ha, effect vs untreated controls
Method in brief: as §4

[28] = tested on: Abutilon theophrasti (ABUTH); assay: Post-emergence herbicidal action against ABUTH; conditions: 320 g/ha, visual rating about 3 weeks after treatment vs untreated controls (100% = plants have died, 0% = like control plants)
Method in brief: as §3

[29] = tested on: Polygonum convolvulus (POLCO); assay: Post-emergence herbicidal action against POLCO
Method in brief: as §3

[30] = 20 g/ha, effect vs untreated controls
[31] = 80 g/ha, effect in comparison to untreated controls

Pre-emergence action against BRSNW in % (Brassica napus (BRSNW); 20 g/ha): 10%
Pre-emergence action against BRSNW in % (Brassica napus (BRSNW); 80 g/ha): 20%
Pre-emergence action against GLXMA (Glycine max (GLXMA); [30]): 10%
Pre-emergence action against ORYSA (Oryza sativa (ORYSA) [12]; [30]): 0%
Pre-emergence action against ORYSA in % (Oryza sativa (ORYSA) [12]; 80 g/ha): 20%
Pre-emergence action against TRZAS [13, 30]: 0%
Pre-emergence action against ZEAMX (Zea mays (ZEAMX) [14]; [30]): 10%
Pre-emergence action against ZEAMX in % (Zea mays (ZEAMX) [14]; 80 g/ha): 10%
Post-emergence action against ORYSA in % (Oryza sativa (ORYSA) [24]; [30]): 0%
Post-emergence action against ORYSA in % (Oryza sativa (ORYSA) [24]; [31]): 0%
Post-emergence action against ORYSA in % (Oryza sativa (ORYSA) [24]; 320 g/ha, effect in comparison to untreated controls): 10%
Post-emergence action against ZEAMX in % (crop plant compatibility) (Zea mays (ZEAMX) [25]; 20 g/ha, ZEAMX, effect in comparison to untreated controls): 10%
SMILES: COC(=O)[C@@H](C)Oc1nn(-c2ccc(F)cn2)c(-c2ccc(F)nc2)c1Br [Example I-11]
Pre-emergence action against ALOMY ([1]; 80 g/ha): 90%
Pre-emergence action against ALOMY ([1]; 320 g/ha): 100%
Pre-emergence action against AMARE in % [2]: 100%
Pre-emergence action against AVEFA in % (Avena fatua (AVEFA) [3]): 90%
Pre-emergence action against DIGSA in % ([4]; 80 g/ha, visual scoring after about 3 weeks vs untreated controls): 100%
Pre-emergence action against DIGSA in % ([4]; dosage 320 g/ha): 100%
Pre-emergence action against ECHCG in % [5]: 80%
Pre-emergence action against LOLRI in % (Lolium rigidum (LOLRI) [6]): 100%
Pre-emergence action against MATIN in % [7]: 90%
Pre-emergence action against POLCO in % ([8]; dosage 80 g/ha): 90%
Pre-emergence action against POLCO in % ([8]; dosage 320 g/ha): 90%
Pre-emergence action against SETVI in % (Setaria viridis (SETVI) [9]; dosage 80 g/ha): 90%
Pre-emergence action against SETVI in % (Setaria viridis (SETVI) [9]; dosage 320 g/ha): 100%
Pre-emergence action against VERPE in % [10]: 90%
Pre-emergence action against VIOTR in % (Viola tricolor (VIOTR) [11]): 100%
Post-emergence action against ALOMY in % ([15]; 80 g/ha): 90%
Post-emergence action against ALOMY in % ([15]; 320 g/ha): 90%
Post-emergence action against AVEFA in % (Avena fatua (AVEFA) [16]; 80 g/ha): 80%
Post-emergence action against AVEFA in % (Avena fatua (AVEFA) [16]; 320 g/ha): 90%
Post-emergence action against DIGSA in % ([17]; 80 g/ha): 90%
Post-emergence action against DIGSA in % ([17]; 320 g/ha): 90%
Post-emergence action against ECHCG in % [18]: 80%
Post-emergence action against LOLRI in % (Lolium rigidum (LOLRI) [19]): 80%
Post-emergence action against PHBPU in % ([20]; dosage 320 g/ha): 90%
Post-emergence action against SETVI in % (Setaria viridis (SETVI) [21]; dosage 80 g/ha): 80%
Post-emergence action against SETVI in % (Setaria viridis (SETVI) [21]; dosage 320 g/ha): 90%
Post-emergence action against VERPE in % [22]: 80%
Post-emergence action against VIOTR in % (Viola tricolor (VIOTR) [23]): 80%

Pre-emergence action against BRSNW in % (Brassica napus (BRSNW); 80 g/ha): 20%
Pre-emergence action against GLXMA in % (Glycine max (GLXMA)): 0%
Pre-emergence action against ORYSA in % (Oryza sativa (ORYSA) [12]; 80 g/ha): 10%
Pre-emergence action against ORYSA in % (Oryza sativa (ORYSA) [12]; 320 g/ha): 20%
Pre-emergence action against TRZAS in % ([13]; 80 g/ha): 10%
Pre-emergence action against ZEAMX in % (Zea mays (ZEAMX) [14]; 80 g/ha): 0%
Pre-emergence action against ZEAMX in % (Zea mays (ZEAMX) [14]; 320 g/ha): 10%
Post-emergence action against ORYSA in % (Oryza sativa (ORYSA) [24]; [31]): 20%
Post-emergence action against TRZAS in % [27]: 10%
Post-emergence action against ZEAMX in % (Zea mays (ZEAMX) [25]; 80 g/ha): 0%
Post-emergence action against ZEAMX in % (Zea mays (ZEAMX) [25]; 320 g/ha): 10%
SMILES: COC(=O)C=CC(C)NC(=O)COc1nn(-c2ccccn2)c(-c2ccc(F)nc2)c1Br (stereo not shown) [Example I-345]
Pre-emergence action against DIGSA in % ([4]; dosage 320 g/ha): 90%
Post-emergence action against AMARE in % [26]: 80%
Post-emergence action against VERPE in % [22]: 80%

Pre-emergence action against BRSNW in % (Brassica napus (BRSNW); 80 g/ha): 20%
Pre-emergence action against GLXMA in % (Glycine max (GLXMA)): 20%
Pre-emergence action against ORYSA in % (Oryza sativa (ORYSA) [12]; 80 g/ha): 20%
Pre-emergence action against TRZAS in % ([13]; 80 g/ha): 10%
Pre-emergence action against TRZAS in % ([13]; 320 g/ha): 20%
Pre-emergence action against ZEAMX in % (Zea mays (ZEAMX) [14]; 80 g/ha): 20%
Post-emergence action against ORYSA in % (Oryza sativa (ORYSA) [24]; [31]): 10%
Post-emergence action against TRZAS in % [27]: 20%
Post-emergence action against ZEAMX in % (Zea mays (ZEAMX) [25]; 80 g/ha): 10%
SMILES: CCOC(=O)COc1nn(-c2cccc(C)n2)c(-c2ccc(F)nc2)c1Br [Example I-312]
Pre-emergence action against AMARE in % [2]: 90%
Pre-emergence action against MATIN in % [7]: 90%
Pre-emergence action against SETVI in % (Setaria viridis (SETVI) [9]; dosage 320 g/ha): 90%
Post-emergence action against ABUTH in % [28]: 80%
Post-emergence action against ALOMY in % ([15]; 320 g/ha): 90%
Post-emergence action against ECHCG in % [18]: 90%
Post-emergence action against LOLRI in % (Lolium rigidum (LOLRI) [19]): 90%
Post-emergence action against PHBPU in % ([20]; dosage 80 g/ha): 80%
Post-emergence action against PHBPU in % ([20]; dosage 320 g/ha): 90%
Post-emergence action against POLCO in % ([29]; dosage 80 g/ha): 80%
Post-emergence action against POLCO in % ([29]; dosage 320 g/ha): 80%
Post-emergence action against SETVI in % (Setaria viridis (SETVI) [21]; dosage 320 g/ha): 80%
Post-emergence action against VERPE in % [22]: 80%

From patent publication US20240041042A1, “1-(PYRIDYL)-5-AZINYLPYRAZOLE DERIVATIVES, AND THEIR USE FOR CONTROL OF UNDESIRED PLANT GROWTH” (Bayer Aktiengesellschaft, priority 2020, published 2024)
